According to patent US7858125B2, “Multi-component biocide composition for wood protection” (priority 2006, dated 2010):

Assays:
[1] = test system: mixed spore preparation of Aspergillus niger, Penicillium chrysogenum and Trichoderma viride; experiment: Mold resistance of dip-treated wood stakes (ASTM D4445-91), mixed mold spore inoculum; type: cell-based; conditions: Example 4; unseasoned southern yellow pine stakes dip-treated 15 s, 4 weeks, 27° C., 70% RH; scale 0-5
Text: The biocide compositions were first tested for the efficacy in preventing mold fungal growth. The mold fungi used in the mold growth analysis included Aspergillus niger 2.242 (available from University of Virginia, Charlottesville, Va.), Penicillium chrysogenum PH02 (an isolate provided by Forest Products Laboratory, Madison, Wis.) and Trichoderma viride ATCC 20476 (available from American Type Culture Collection, Rockville, Md.). The mold fungi were first prepared by growing the various mold fungi species on 2% malt agar. A mixed spore preparation was then prepared by washing the surface of a 2-week old culture of each fungus with 10 milliliters of sterile deionized (DI) water according to the American Society for Testing and Materials (ASTM) standard D4445-91 (1998). Spore suspensions were transferred to a spray bottle and diluted to 100 milliliters with DI water. The spray bottle was adjusted to deliver 1 milliliter inoculum/spray.
Specimens (7×20 millimeters cross section by 7 centimeters long) were cut from unseasoned southern yellow pine mill ends from a Mississippi sawmill and stored at 0° C. Average moisture content of the specimens was 48% by weight (n=3). Southern yellow pine oriented strand board (OSB) specimens (11×20 millimeters cross section by 7 centimeters long) were cut from a full sheet of OSB and conditioned to 70% relative humidity. Five replicate specimen stakes were dip-treated for approximately 15 seconds in each biocide composition and held in a covered container overnight according to the ASTM standard test method D4445-91 (1998). Specimens were then arranged over four layers of blotting paper that was saturated with 30 milliliters DI water and a polyethylene mesh spacer in sterile disposable Petri dishes (150×25 millimeters) (commercially available from B-D Falcon, Los Angeles, Calif.). Untreated stakes were dipped in DI water and served as Control A for water-based test chemicals. Additional stakes were dipped in 70% (by weight) ethanol to serve as Control B for test chemicals of low solubility. […]

[2] = test system: Reticulotermes flavipes (Kollar); experiment: Termite bioassay, no-choice test procedure; type: in vivo; conditions: dip-treated southern yellow pine blocks, four weeks; for Termite Bioassay Mortality Rating: 1 gram of termites, 27° C., 80% RH; for Termite Bioassay Attack Rating: visual rating 10 (no attack), 9 light, 7 moderate, 4 heavy, 0 (complete failure)
Text: The biocide compositions were additionally evaluated for their ability to inhibit termite infestation. Specifically, numerous samples of the subterranean termite, Reticulotermes flavipes (Kollar), were collected in Janesville, Wis. for a termite bioassay.
To begin the termite bioassay, pre-weighed and pre-conditioned southern yellow pine blocks (1×1×1 centimeter) (n=5) were dip-treated with either the biocide compositions prepared above or the individual components. Five control samples were prepared by dipping blocks into DI water.
Each block was conditioned to ensure all solvent had dissipated prior to being subjected to a termite bioassay according to no-choice test procedure (ASTM 1998). Each block was then placed in a lidded test dish with 50 grams sand, […] of DI water, and 1 gram of termites. The dishes were incubated at 27° C. and 80% relative humidity for four weeks. The dishes were examined after one and four weeks for tunneling and mortality. The mortality was scaled using a label of “none” (representing a mortality rating of 0%); “slight” (representing a mortality rating of from 1% to 33%); “moderate” (representing a mortality rating of from 34% to 66%) “heavy” (representing a mortality rating of from 67% to 99%); or “complete” (representing a mortality rating of 100%). At the end of the four-week test period, the blocks were removed from the dishes, cleaned, dried, re-conditioned and weighed to determine weight loss of the block, indicating the relative wood consumption of the block by the termites. Additionally, a visual rating of 10 (representing no attack); 9 (representing a light attack); 7 (representing a moderate attack); 4 (representing a heavy attack); or 0 (representing complete failure in inhibiting termite infestation), was recorded for each sample block.

P. placenta = experiment: Soil block test (AWPA E-10-01), brown-rot decay; type: cell-based, Postia placenta MAD 698; conditions: vacuum-treated southern yellow pine blocks, 12 weeks (Example 1 text; Example 4, FIG. 1)
Experimental: (§1) In addition to the mold fungi analysis above, the biocide compositions were tested for their efficacy in preventing decay fungal growth. The decay fungi used in the decay fungal growth analysis included Postia placenta MAD 698 (Fries) Lars. & Lomb., Gloeophyllum trabeum MAD 617 (Pers:Fries) Murrill, and Coriolus versicolor MAD 697 (L.:Fr.) Pilat. The decay fungi, all obtained from the Center of Forest Mycology Research (Forest Products Laboratory, Madison, Wis.) were maintained on 2% malt agar.
(§2) To test the biocide compositions' abilities to inhibit decay fungal growth, soil block culture bottles were prepared according to American Wood Preservers' Association (AWPA) E-10-01 (2003). Southern yellow pine feeders were inoculated with two brown-rot fungus, P. placenta and G. trabeum and maple feeders were inoculated with one white-rot fungus, C. versicolor. Bottles were incubated at 27° C. and 70% relative humidity for three weeks until the fungus completely colonized each feeder. […] The blocks were weighed and the average percentage weight loss was calculated. […]
(§3) To test the biocide compositions' abilities to inhibit decay fungal growth, soil block culture bottles were first prepared according to American Wood Preservers' Association (AWPA) E-10-01 (2003). […] The blocks were weighed and the average percentage weight loss was calculated.

G. trabeum = experiment: Soil block test (AWPA E-10-01), brown-rot decay; type: cell-based, Gloeophyllum trabeum MAD 617; conditions: vacuum-treated southern yellow pine blocks, 12 weeks (Example 1 text; Example 4, FIG. 1)
Experimental: as §1, §2, §3

C. versicolor = experiment: Soil block test (AWPA E-10-01), white-rot decay; type: cell-based, Coriolus versicolor MAD 697; conditions: vacuum-treated southern yellow pine blocks, 12 weeks (Example 1 text; Example 4, FIG. 1)
Experimental: as §1, §2, §3

Coptotermes formosans = experiment: Termite bioassay, no-choice test procedure; type: in vivo; conditions: dip-treated southern yellow pine blocks, 1 gram of termites, four weeks, 27° C., 80% RH
Experimental: In this Example, various concentrations of a biocide composition were evaluated for its ability to inhibit termite infestation. The ability of the biocide composition was then compared to the ability of disodium octaborate tetrahydrate, a borate component, alone and an untreated control to inhibit termite infestation. Specifically, samples of the subterranean termite, Coptotermes formosans, were collected at the Formosan Termite Research Facility at McNeill, Miss. for a termite bioassay. To begin the termite bioassay, pre-weighed and pre-conditioned southern yellow pine blocks (1×1×1 centimeter) (n=5) were dip-treated with two concentrations of a biocide composition. A first control sample (Control A) was prepared by dipping blocks into DI water. A second control sample (Control B) was prepared by dipping the blocks into 0.28% (by weight) disodium octaborate tetrahydrate. […] Each block was conditioned to ensure all solvent had dissipated prior to being subjected to a termite bioassay according to no-choice test procedure (ASTM 1998). […] Damp filter paper was placed into the lid of each dish to help maintain humidity during a four-week incubation at 27° C. and 80% relative humidity. The dishes were examined daily and mortality of the termites was recorded. […]

Molecule | Mold Resistance Average Rating, Southern Pine [1] | Termite Bioassay Mortality Rating [2] | Termite Bioassay Attack Rating [2] | Inhibition of decay by P. placenta, in words (P. placenta) | Inhibition of decay by G. trabeum, in words (G. trabeum) | Inhibition of decay by C. versicolor, in words (C. versicolor) | Average Weight Loss (%) (Coptotermes formosans)
CC(C)c1cccc(O)c(=O)c1 [G, Thujaplicin (isopropyltropolone)] | 3.2 | None | 0.0 | – | – | – | –
Thujaplicin (isopropyltropolone) | – | – | – | did not inhibit decay | did not inhibit decay | did not inhibit decay | –
O.O.O.O.O=BOB1OB(OB=O)OB2OB([O-])OB([O-])OB(O1)O2.[Na+].[Na+] [Control B, disodium octaborate tetrahydrate] | – | – | – | – | – | – | 4.20
C[C@@H](c1ncncc1F)[C@](O)(Cn1cncn1)c1ccc(F)cc1F [E, Voriconazole] | 0.04 | None | 0.0 | – | – | – | –
c1ccc2[nH]c(-c3cscn3)nc2c1 [F, Thiabendazole] | 0.0 | None | 0.0 | – | – | – | –
